Test results: ChEMBL document CHEMBL4028801, “A multifactorial approach to hepatobiliary transporter assessment enables improved therapeutic compound development” (Toxicol Sci, 2013)
pIC50: −log10 of the molar value. Structures can show the parent of a compound that is named as a salt.

How the values were obtained:
Bile salt export pump = Bile salt export pump (Homo sapiens, UniProt O95342); assay: Inhibition of human BSEP overexpressed in Sf9 cell membrane vesicles assessed as uptake of [3H]-taurocholate in presence of ATP measured after 15 to 20 mins by membrane vesicle transport assay; format: ADME, cell-based
[1] = target: ATP-binding cassette sub-family C member 2 (Homo sapiens, UniProt Q92887); assay: Inhibition of human MRP2 overexpressed in Sf9 cell membrane vesicles assessed as uptake of [3H]-estradiol-17beta-D-glucuronide in presence of ATP and GSH measured after 20 mins by membrane vesicle transport assay
[2] = target: ATP-binding cassette sub-family C member 3 (Homo sapiens, UniProt O15438); assay: Inhibition of human MRP3 overexpressed in Sf9 insect cell membrane vesicles assessed as uptake of [3H]-estradiol-17beta-D-glucuronide in presence of ATP and GSH measured after 10 mins by membrane vesicle transport assay; format: ADME, cell-based
[3] = target: T1, ATP-binding cassette sub-family C member 4 (Homo sapiens, UniProt O15439); assay: Inhibition of human MRP4 overexpressed in Sf9 cell membrane vesicles assessed as uptake of [3H]-estradiol-17beta-D-glucuronide in presence of ATP and GSH measured after 20 mins by membrane vesicle transport assay; format: ADME, cell-based
T1 sequence (O15439 whole entry): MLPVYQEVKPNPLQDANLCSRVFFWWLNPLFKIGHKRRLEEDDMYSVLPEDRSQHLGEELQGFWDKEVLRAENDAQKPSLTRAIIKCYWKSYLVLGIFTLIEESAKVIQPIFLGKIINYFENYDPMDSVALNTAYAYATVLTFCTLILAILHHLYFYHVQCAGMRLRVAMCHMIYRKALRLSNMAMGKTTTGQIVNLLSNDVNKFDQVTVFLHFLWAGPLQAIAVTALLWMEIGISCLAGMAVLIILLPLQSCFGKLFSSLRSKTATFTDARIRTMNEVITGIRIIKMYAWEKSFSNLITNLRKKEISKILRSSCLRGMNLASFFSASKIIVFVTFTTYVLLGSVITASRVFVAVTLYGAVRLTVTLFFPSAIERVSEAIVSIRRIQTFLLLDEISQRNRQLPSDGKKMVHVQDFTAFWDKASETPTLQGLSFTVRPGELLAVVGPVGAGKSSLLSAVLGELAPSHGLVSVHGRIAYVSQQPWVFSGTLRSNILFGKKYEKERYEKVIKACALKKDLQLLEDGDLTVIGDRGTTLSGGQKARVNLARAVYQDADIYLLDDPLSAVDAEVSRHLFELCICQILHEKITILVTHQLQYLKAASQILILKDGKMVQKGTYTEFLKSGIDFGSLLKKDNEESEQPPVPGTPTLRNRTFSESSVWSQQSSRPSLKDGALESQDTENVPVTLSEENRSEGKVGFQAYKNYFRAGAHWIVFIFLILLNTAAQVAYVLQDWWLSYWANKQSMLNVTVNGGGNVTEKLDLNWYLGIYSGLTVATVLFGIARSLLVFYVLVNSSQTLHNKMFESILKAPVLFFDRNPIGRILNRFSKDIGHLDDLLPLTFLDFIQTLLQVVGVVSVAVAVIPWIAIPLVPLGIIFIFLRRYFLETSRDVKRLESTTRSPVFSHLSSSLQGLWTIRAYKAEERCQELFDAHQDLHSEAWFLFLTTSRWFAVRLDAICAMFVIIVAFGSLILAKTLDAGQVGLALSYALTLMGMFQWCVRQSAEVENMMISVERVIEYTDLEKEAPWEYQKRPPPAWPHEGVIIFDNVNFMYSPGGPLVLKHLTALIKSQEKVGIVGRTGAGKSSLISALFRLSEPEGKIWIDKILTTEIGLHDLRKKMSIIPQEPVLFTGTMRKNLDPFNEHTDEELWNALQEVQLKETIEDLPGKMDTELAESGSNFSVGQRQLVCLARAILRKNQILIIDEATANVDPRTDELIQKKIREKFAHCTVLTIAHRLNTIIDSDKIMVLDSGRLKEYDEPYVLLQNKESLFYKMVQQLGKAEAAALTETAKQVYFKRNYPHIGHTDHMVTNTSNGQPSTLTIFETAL

Sequence of ATP-binding cassette sub-family C member 3 (O15438 whole entry): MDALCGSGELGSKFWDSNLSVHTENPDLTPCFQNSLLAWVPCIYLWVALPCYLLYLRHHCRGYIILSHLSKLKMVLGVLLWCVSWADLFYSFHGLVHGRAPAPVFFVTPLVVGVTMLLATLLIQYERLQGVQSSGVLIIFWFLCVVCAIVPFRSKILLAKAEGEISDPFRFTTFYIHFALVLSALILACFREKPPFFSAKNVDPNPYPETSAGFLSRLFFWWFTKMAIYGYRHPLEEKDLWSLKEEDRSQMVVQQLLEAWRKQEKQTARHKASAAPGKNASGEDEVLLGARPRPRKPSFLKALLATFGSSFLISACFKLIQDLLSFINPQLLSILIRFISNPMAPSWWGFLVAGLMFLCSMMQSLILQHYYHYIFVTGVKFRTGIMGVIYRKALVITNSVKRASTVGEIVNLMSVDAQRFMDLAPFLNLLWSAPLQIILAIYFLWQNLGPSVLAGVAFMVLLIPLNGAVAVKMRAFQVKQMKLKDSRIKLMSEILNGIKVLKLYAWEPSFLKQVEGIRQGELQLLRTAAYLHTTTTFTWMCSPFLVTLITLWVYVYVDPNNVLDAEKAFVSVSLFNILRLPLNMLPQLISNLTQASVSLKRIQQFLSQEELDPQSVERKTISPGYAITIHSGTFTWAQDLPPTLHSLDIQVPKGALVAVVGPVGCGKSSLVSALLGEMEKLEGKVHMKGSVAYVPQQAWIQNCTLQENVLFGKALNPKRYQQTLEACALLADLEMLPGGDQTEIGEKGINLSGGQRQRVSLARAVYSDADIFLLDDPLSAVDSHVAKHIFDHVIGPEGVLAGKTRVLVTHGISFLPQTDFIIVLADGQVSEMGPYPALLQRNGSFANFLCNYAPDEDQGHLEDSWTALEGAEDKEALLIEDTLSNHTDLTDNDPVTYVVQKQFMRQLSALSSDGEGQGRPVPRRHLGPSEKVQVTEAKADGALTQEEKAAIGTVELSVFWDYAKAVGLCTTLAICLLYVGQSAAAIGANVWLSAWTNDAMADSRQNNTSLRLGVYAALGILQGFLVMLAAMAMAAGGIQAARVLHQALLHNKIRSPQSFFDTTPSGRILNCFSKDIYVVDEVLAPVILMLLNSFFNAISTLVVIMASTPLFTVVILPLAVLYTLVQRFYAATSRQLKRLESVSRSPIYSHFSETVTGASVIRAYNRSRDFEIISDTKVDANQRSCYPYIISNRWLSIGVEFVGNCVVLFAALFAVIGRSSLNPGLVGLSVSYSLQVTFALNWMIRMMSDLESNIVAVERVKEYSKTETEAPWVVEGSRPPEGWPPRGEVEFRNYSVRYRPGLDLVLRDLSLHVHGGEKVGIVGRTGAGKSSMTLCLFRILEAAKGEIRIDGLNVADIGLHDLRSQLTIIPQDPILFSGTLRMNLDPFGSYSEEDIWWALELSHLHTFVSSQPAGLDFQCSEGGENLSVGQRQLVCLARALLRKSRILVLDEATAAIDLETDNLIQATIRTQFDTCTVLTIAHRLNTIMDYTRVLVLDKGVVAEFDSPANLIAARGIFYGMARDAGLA
Sequence of Bile salt export pump (O95342 whole entry): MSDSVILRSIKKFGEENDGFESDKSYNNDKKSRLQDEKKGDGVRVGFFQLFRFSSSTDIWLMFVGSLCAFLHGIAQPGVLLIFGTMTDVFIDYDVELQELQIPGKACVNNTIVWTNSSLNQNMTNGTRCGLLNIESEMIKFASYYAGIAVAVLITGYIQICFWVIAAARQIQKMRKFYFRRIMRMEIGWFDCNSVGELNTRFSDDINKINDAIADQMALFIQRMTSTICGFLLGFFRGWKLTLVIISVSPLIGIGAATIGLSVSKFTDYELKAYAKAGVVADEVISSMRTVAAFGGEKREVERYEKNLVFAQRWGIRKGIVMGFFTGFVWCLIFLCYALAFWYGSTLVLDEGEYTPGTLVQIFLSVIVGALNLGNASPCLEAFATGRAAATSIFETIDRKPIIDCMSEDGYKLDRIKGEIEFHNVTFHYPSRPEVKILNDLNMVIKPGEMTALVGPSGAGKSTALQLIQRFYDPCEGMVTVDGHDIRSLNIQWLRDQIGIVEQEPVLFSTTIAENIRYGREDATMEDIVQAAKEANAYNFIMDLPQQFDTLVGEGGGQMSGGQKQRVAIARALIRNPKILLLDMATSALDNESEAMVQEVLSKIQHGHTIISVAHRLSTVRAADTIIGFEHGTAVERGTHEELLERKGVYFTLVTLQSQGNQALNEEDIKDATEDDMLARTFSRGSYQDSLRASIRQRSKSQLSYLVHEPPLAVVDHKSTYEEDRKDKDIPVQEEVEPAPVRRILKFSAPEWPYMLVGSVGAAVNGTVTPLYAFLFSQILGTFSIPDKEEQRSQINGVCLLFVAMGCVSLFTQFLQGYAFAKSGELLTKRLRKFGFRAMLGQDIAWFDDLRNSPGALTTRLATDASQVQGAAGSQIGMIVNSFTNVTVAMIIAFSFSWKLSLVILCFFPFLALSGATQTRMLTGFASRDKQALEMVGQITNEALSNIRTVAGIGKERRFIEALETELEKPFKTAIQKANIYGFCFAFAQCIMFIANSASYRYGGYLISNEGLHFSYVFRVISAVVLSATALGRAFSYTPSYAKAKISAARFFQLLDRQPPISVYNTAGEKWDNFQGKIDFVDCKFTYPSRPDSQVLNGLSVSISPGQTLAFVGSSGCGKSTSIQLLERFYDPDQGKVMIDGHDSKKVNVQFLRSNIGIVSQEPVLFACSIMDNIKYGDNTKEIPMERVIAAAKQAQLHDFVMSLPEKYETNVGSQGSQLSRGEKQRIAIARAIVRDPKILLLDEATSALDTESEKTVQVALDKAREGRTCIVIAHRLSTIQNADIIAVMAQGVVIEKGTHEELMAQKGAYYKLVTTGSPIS
Sequence of ATP-binding cassette sub-family C member 2 (Q92887 whole entry): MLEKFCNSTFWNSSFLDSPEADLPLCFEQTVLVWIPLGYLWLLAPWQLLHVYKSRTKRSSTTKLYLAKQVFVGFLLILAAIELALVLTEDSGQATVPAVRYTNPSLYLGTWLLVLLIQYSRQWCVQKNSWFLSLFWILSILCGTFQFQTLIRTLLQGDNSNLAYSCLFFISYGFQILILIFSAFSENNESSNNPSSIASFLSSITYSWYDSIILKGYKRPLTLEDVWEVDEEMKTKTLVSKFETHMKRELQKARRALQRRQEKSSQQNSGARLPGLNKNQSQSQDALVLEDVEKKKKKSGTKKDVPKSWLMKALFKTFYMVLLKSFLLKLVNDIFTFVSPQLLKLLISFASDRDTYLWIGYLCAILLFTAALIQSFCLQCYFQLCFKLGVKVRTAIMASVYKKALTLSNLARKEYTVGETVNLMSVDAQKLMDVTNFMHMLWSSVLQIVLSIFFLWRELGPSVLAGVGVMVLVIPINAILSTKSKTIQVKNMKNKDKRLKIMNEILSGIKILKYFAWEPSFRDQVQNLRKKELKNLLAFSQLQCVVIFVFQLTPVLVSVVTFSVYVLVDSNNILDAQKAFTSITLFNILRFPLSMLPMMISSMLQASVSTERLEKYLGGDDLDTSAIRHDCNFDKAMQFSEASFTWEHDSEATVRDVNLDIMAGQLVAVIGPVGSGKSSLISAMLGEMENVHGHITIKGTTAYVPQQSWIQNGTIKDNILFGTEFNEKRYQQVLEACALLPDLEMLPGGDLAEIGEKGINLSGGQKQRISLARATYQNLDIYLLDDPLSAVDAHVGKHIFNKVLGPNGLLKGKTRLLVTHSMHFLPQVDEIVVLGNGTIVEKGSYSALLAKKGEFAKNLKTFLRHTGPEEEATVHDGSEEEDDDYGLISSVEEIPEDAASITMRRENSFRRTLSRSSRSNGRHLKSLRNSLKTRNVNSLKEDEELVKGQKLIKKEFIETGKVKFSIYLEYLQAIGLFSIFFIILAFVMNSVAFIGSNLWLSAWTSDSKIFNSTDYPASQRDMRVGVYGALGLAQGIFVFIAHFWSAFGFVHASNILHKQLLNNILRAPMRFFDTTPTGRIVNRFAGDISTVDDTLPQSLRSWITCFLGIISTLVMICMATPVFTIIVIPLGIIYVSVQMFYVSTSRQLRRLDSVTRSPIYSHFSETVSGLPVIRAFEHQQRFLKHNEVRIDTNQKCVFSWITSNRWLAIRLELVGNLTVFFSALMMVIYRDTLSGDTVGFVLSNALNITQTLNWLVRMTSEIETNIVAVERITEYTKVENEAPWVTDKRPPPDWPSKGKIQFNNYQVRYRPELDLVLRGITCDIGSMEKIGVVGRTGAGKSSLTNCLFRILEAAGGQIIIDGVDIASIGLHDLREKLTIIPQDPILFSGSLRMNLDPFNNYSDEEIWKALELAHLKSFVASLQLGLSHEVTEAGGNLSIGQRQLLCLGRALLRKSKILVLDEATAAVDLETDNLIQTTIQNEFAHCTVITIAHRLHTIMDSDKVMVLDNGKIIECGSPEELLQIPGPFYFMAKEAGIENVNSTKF

| SMILES | pIC50 (Bile salt export pump) | pIC50 [1] | pIC50 [2] | pIC50 [3] |
| --- | --- | --- | --- | --- |
| Cc1ncc([N+](=O)[O-])n1CC(O)CCl (stereo not given) [ORNIDAZOLE] | < 3.88 | < 3.88 | < 3.88 | < 3.88 |
| CCOC(=O)C1=C[C@@H](OC(CC)CC)[C@H](NC(C)=O)[C@@H](N)C1 [OSELTAMIVIR PHOSPHATE] | < 3.88 | < 3.88 | < 3.88 | < 3.88 |
| NC(=O)N1c2ccccc2CC(=O)c2ccccc21 [OXCARBAZEPINE] | < 3.88 | < 3.88 | < 3.88 | < 3.88 |
| Clc1ccc(CO/N=C(\Cn2ccnc2)c2ccc(Cl)cc2Cl)c(Cl)c1 [OXICONAZOLE NITRATE] | 4.31 | < 3.88 | < 3.88 | < 3.88 |
| C[C@]12C/C(=C/O)C(=O)C[C@@H]1CC[C@@H]1[C@@H]2CC[C@@]2(C)[C@H]1CC[C@]2(C)O [OXYMETHOLONE] | 4.31 | < 3.88 | < 3.88 | < 3.88 |
| CC(=O)O[C@H]1C[C@@H]2CC[C@@H]3[C@H](CC[C@@]4(C)[C@H]3C[C@H]([N+]3(C)CCCCC3)[C@@H]4OC(C)=O)[C@@]2(C)C[C@@H]1[N+]1(C)CCCCC1 [PANCURONIUM BROMIDE] | < 3.88 | < 3.88 | < 3.88 | < 3.88 |
| COc1ccc(Cc2nccc3cc(OC)c(OC)cc23)cc1OC [PAPAVERINE] | < 3.88 | < 3.88 | < 3.88 | 4.64 |
| Fc1ccc([C@@H]2CCNC[C@H]2COc2ccc3c(c2)OCO3)cc1 [PAROXETINE HYDROCHLORIDE] | < 3.88 | < 3.88 | < 3.88 | < 3.88 |
| C[C@H]1COc2c(C3(N)CC3)c(F)cc3c(=O)c(C(=O)O)cn1c23 [PAZUFLOXACIN] | < 3.88 | < 3.88 | < 3.88 | < 3.88 |
| CCn1cc(C(=O)O)c(=O)c2cc(F)c(N3CCN(C)CC3)cc21 [PEFLOXACIN] | < 3.88 | < 3.88 | < 3.88 | < 3.88 |
| Cc1cccn2c(=O)c(-c3nnn[nH]3)cnc12 [PEMIROLAST POTASSIUM] | < 3.88 | < 3.88 | < 3.88 | < 3.88 |
| NC1=NC(=O)C(c2ccccc2)O1 (stereo not given) [PEMOLINE] | < 3.88 | < 3.88 | < 3.88 | < 3.88 |
| N=C(N)c1ccc(OCCCCCOc2ccc(C(=N)N)cc2)cc1 [PENTAMIDINE] | < 3.88 | < 3.88 | < 3.88 | < 3.88 |
| CC(=O)CCCCn1c(=O)c2c(ncn2C)n(C)c1=O [PENTOXIFYLLINE] | < 3.88 | < 3.88 | < 3.88 | < 3.88 |
| CCCN1C[C@H](CSC)C[C@@H]2c3cccc4[nH]cc(c34)C[C@H]21 [PERGOLIDE MESYLATE] | < 3.88 | < 3.88 | < 3.88 | < 3.88 |
| CCC[C@H](N[C@@H](C)C(=O)N1[C@H](C(=O)O)C[C@@H]2CCCC[C@@H]21)C(=O)OCC [PERINDOPRIL ERBUMINE] | < 3.88 | < 3.88 | < 3.88 | < 3.88 |
| OCCN1CCN(CCCN2c3ccccc3Sc3ccc(Cl)cc32)CC1 [PERPHENAZINE] | < 3.88 | < 3.88 | < 3.88 | < 3.88 |
| CCOc1ccc(NC(C)=O)cc1 [PHENACETIN] | < 3.88 | < 3.88 | < 3.88 | < 3.88 |
| [H]/N=C(/N)N/C(=N/[H])NCCc1ccccc1 [PHENFORMIN] | < 3.88 | < 3.88 | < 3.88 | < 3.88 |
| CCN1CCN(C(=O)N[C@@H](C(=O)N[C@@H]2C(=O)N3[C@@H]2SC(C)(C)[C@@H]3C(=O)O)c2ccccc2)C(=O)C1=O [PIPERACILLIN SODIUM] | < 3.88 | < 3.88 | < 3.88 | < 3.88 |

| SMILES | pIC50 (Bile salt export pump) | pIC50 [1] | pIC50 [2] | pIC50 [3] |
| --- | --- | --- | --- | --- |
| c1cnc(N2CCN(Cc3ccc4c(c3)OCO4)CC2)nc1 [PIRIBEDIL] | < 3.88 | < 3.88 | < 3.88 | < 3.88 |
| Cc1cccc(Nc2cc(Cl)nc(SCC(=O)O)n2)c1C [PIRINIXIC ACID] | 4.00 | < 3.88 | < 3.88 | 4.35 |
| CN1C(C(=O)Nc2ccccn2)=C(O)c2ccccc2S1(=O)=O [PIROXICAM] | < 3.88 | < 3.88 | < 3.88 | < 3.88 |
| c1cc(CN2CCCNCCNCCCNCC2)ccc1CN1CCCNCCNCCCNCC1 [PLERIXAFOR] | < 3.88 | < 3.88 | < 3.88 | < 3.88 |
| CCCN[C@H]1CCc2nc(N)sc2C1 [PRAMIPEXOLE] | < 3.88 | < 3.88 | < 3.88 | < 3.88 |
| CC(C(=O)O)c1ccc2c(c1)Cc1cccnc1O2 (stereo not given) [PRANOPROFEN] | < 3.88 | < 3.88 | < 3.88 | 5.01 |
| CC[C@H](C)C(=O)O[C@H]1C[C@H](O)C=C2C=C[C@H](C)[C@H](CC[C@@H](O)C[C@@H](O)CC(=O)O)[C@H]21 [PRAVASTATIN SODIUM] | < 3.88 | < 3.88 | 3.90 | < 3.88 |
| CC(C)C[C@H](CN)CC(=O)O [PREGABALIN] | < 3.88 | < 3.88 | < 3.88 | < 3.88 |
| CCC1(c2ccccc2)C(=O)NCNC1=O [PRIMIDONE] | < 3.88 | < 3.88 | < 3.88 | < 3.88 |
| CCCN(CCC)S(=O)(=O)c1ccc(C(=O)O)cc1 [PROBENECID] | < 3.88 | < 3.88 | < 3.88 | < 3.88 |
| CNNCc1ccc(C(=O)NC(C)C)cc1 [PROCARBAZINE HYDROCHLORIDE] | < 3.88 | < 3.88 | < 3.88 | < 3.88 |
| CC(CN1c2ccccc2Sc2ccccc21)N(C)C (stereo not given) [PROMETHAZINE] | < 3.88 | < 3.88 | < 3.88 | < 3.88 |
| CCCNCC(O)COc1ccccc1C(=O)CCc1ccccc1 (stereo not given) [PROPAFENONE] | < 3.88 | < 3.88 | < 3.88 | < 3.88 |
| CCCc1cc(=O)[nH]c(=S)[nH]1 [PROPYLTHIOURACIL] | < 3.88 | < 3.88 | < 3.88 | < 3.88 |
| NC(=O)c1cnccn1 [PYRAZINAMIDE] | < 3.88 | < 3.88 | < 3.88 | < 3.88 |
| O=c1c(O)c(-c2ccc(O)c(O)c2)oc2cc(O)cc(O)c12 [QUERCETIN] | < 3.88 | < 3.88 | < 3.88 | 4.68 |
| C=C[C@H]1C[N@@]2CC[C@H]1C[C@@H]2[C@@H](O)c1ccnc2ccc(OC)cc12 [QUINIDINE] | < 3.88 | < 3.88 | < 3.88 | 4.34 |
| C=C[C@H]1C[N@@]2CC[C@H]1C[C@H]2[C@H](O)c1ccnc2ccc(OC)cc12 [QUININE] | < 3.88 | < 3.88 | < 3.88 | < 3.88 |
| CC(=O)SCC(Cc1ccccc1)C(=O)NCC(=O)OCc1ccccc1 (stereo not given) [RACECADOTRIL] | 4.69 | < 3.88 | 4.00 | < 3.88 |
| Cc1nc2ccc(CN(C)c3ccc(C(=O)N[C@@H](CCC(=O)O)C(=O)O)s3)cc2c(=O)[nH]1 [RALTITREXED] | < 3.88 | < 3.88 | < 3.88 | < 3.88 |
